For orientation: mortality means the percentage killed.

The subject of data set [1] is 1st instar Beet Army Worm (Spodoptera exigua). As to the kind of experiment: 96-well diet overlay assay. It is filed as in vivo. Particulars: 10 μg/mL concentration per well, 100 μl on diet, 6 days at 26° C.; for mortality at 10 µg/mL: Spodoptera exigua, 144 h. On the procedure: The insecticidal activity of templamide A, B, FR901465 and FR90128 are tested in a laboratory assay using a 96-well diet overlay assay with ^1st instar Beet Armyworm larvae using microtiter plates with 200 μl of solid, artificial Beet Armyworm diet in each well. One hundred (100) μl of each test sample is pipetted on the top of the diet (one sample in each well), and the sample is let dry under flowing air until the surface is dry. Each sample was tested in six replicates, and water and a commercial Bt (B. thuringiensis) product are used as negative and positive controls, respectively. One first instar larvae of the test insect (Beet armyworm—Spodoptera exiqua) was placed in each well, and the plate was covered with plastic cover with airholes. The plates with insects were incubated at 26° C. for 6 days with daily mortality evaluations. Based on the results presented in Table 12, templamide A and B results in 40% and 80% mortality, respectively.

The subject of a further data set is lettuce. Nature of the data set: 96 well plate lettuce seeding assay. The format is in vivo. The following applies: bioassay-guided isolation. On the procedure: The culture broth derived from the 10-L fermentation Burkholderia (A396) in Hy soy growth medium is extracted with Amberlite XAD-7 resin (Asolkar et al., 2006) by shaking the cell suspension with resin at 225 rpm for two hours at room temperature. The resin and cell mass are collected by filtration through cheesecloth and washed with DI water to remove salts. The resin, cell mass, and cheesecloth are then soaked for 2 h in acetone after which the acetone is filtered and dried under vacuum using rotary evaporator to give the crude extract. The crude extract is then fractionated by using reversed-phase C18 vacuum liquid chromatography (H2O/CH3OH; gradient […] to 0:100%) to give 10 fractions. These fractions are then concentrated to dryness using rotary evaporator and the resulting dry residues are screened for biological activity using 96 well plate lettuce seeding assay. The active fractions are then subjected to reversed phase HPLC (Spectra System P4000 (Thermo Scientific) to give pure compounds, which are then screened in above mentioned bioassays to locate/identify the active compounds. To confirm the identity of the compound, additional spectroscopic data such as LC/MS and NMR is recorded.

The test system of data set [2] is green peach aphid (Myzus persicae). As to the kind of experiment: Sucking insect test in vivo on mustard plants. Particulars: positive control (Avid) sprayed; 10 aphids at Day 0. On the procedure: The in vivo efficacy of the filtered whole cell broth is tested in a plant assay with mustard plants and green peach aphid (Myzus persicae) as the test insect. Approximately one-month-old Florida Broadleaf mustard (Brassica sp.) plants are sprayed with two different concentrations (1× and 0.5×) of the filter sterilized whole cell broth of Burkholderia sp. using a Paasche airbrush. Water and a commercial product of avermectin (Avid) are used as negative and positive controls, respectively. The plants are allowed to dry on the benchtop, after which they are placed in a 6-cup plastic container with a lid with airholes. Ten aphids at various developmental stages are placed on each test plant, and the plants are incubated under growth lamps for 7 days at 25° C. Daily evaluations for the number of aphids on each plant (summarized in table Table 8 below) are made and recorded in a notebook.

A further data set concerns Burkholderia A396. As to the kind of experiment: Antibiotic susceptibility, antibiotic disks on Muller-Hinton medium. The format is cell-based, Burkholderia sp. A396. The following applies: 72-hour incubation at 25° C. As to the method:
Antibiotic susceptibility of Burkholderia A396 is tested using antibiotic disks on Muller-Hinton medium as described in PML Microbiological's technical data sheet #535.

A further data set concerns B. cepacia isolates. Particulars: 366 B. cepacia isolates; cited from earlier work.
Another data set concerns B. cepacia complex. The following applies: 2,621 strains in B. cepacia complex from cystic fibrosis patients; cited from earlier work.
Another data set deals with Monilinia fructicola. Nature of the data set: In vitro PDA plate assay, filter paper disks. It is filed as cell-based. Particulars: 10 μL of 1.25-20 mg/mL on disks; 5 days. As to the method:
(§1) Fungicidal activity of FR90128 (MW 540) against three plant pathogenic fungi (Botrytis cinerea, Phytophtora sp., Monilinia fructicola) is tested in an in vitro PDA (potato dextrose agar) plate assay. Plates are inoculated with the fungus using a plug method. After the fungus had established and started to grow on the growth medium, eight sterile filter paper disks are placed on each plate about 1 cm from the edge in a circle. Ten microliters of ethanol solution containing 20, 15, 10, 7.5, 5, 2.5 1.25 mg FR90128/mL is added into filter paper disks, and the solution is left to evaporate. One disk imbedded with 10 μL of pure ethanol is used as a negative control. The assay is done with three replicates. Plates are incubated at room temperature for 5 days, after which the fungicidal activity is recorded by measuring the inhibition zone around each filter paper disk corresponding to different concentrations of FR90128.

Another data set relates to Botrytis cinerea. As to the kind of experiment: In vitro PDA plate assay, filter paper disks. Particulars: 5 days. It is filed as cell-based. As to the method:
as §1

A further data set relates to Phytophtora sp. Nature of the data set: In vitro PDA plate assay, filter paper disks. The format is cell-based. Particulars: 5 days. As to the method: as §1
Data set [3] has as its system barnyard grass (Echinochloa crus-galli) seedlings. Nature of the data set: Herbicidal laboratory assay, 96-well plate. The format is in vivo. Particulars: after five days; for Grass seedlings (% Mortality): 10 μg/mL concentration per well. As to the method: The herbicidal activity of the active compound FR90128 (MW 540) is tested in a laboratory assay using one-week old barnyard grass (Echinochloa crus-galli) seedlings in a 96-well plate platform. One grass seedling was placed in each of the wells containing 99 microliters of DI water. One microliter aliquot of the pure compound in ethanol (10 mg/mL) is added into each well, and the plate is sealed with a lid. One microliter of ethanol in 99 microliters of water is used as a negative control. The treatments were done in eight replicates, and the sealed plate is incubated in a greenhouse under artificial lights (12 hr light/dark cycle). After five days, the results are read.
(§2) The herbicidal activity of templamide A, B, FR901465 and FR90128 are tested in a laboratory assay using one-week old barnyard grass (Echinochloa crus-galli) and lettuce (Lactuca sativa L.) seedlings in a 96-well plate platform. One seedling is placed in each of the wells containing 99 microliters of DI water. Into each well, a one microliter aliquot of the pure compound in ethanol (10 mg/mL) is added, and the plate is sealed with a lid. One microliter of ethanol in 99 microliters of water is used as a negative control. The treatments are done in eight replicates, and the sealed plate is incubated in a greenhouse under artificial lights (12 hr light/dark cycle). After five days, the results are read. […] The herbicidal activity of templamide A against lettuce seedlings is slightly lower than for the grass. On the other hand, templamide B provides a better (100%) control of lettuce seedlings (used as a model system for broadleaf weeds) than templamide A (Table 11).

Data set [4] deals with lettuce (Lactuca sativa L.) seedlings. As to the kind of experiment: Herbicidal laboratory assay, 96-well plate. Particulars: 10 μg/mL concentration per well, after five days. It is filed as in vivo. As to the method:
as §2

The mark [5] stands for this setting: 10 μL of 1.25-20 mg/mL on disks.

Turning to `CCC(=O)OC(C)/C=C\C(=O)NC1CC(C)C(C/C=C(C)/C=C/C2OC(C)(O)C(O)C(O)(CO)C2O)OC1C` (centres unmarked) [Templamide A], the mortality at 10 µg/mL in data set [1] stood at 40%.
For the compound templazole B, the “herbicidal activity of pure compound (in words)” value with lettuce is “herbicidally active”.
Consider `CC[C@H](C)[C@H]1O[C@]2(C=C[C@@H]1C)C[C@@H]1C[C@@H](C/C=C(\C)[C@@H](O[C@H]3C[C@H](OC)[C@@H](O[C@H]4C[C@H](OC)[C@@H](O)[C@H](C)O4)[C@H](C)O3)[C@@H](C)/C=C/C=C3\CO[C@@H]4[C@H](O)C(C)=C[C@@H](C(=O)O1)[C@]34O)O2` [Avermectin], for which, in [2], the “# live aphids Day 2” value was 0, the “# live aphids Day 4” value is reported as 0 and the “# live aphids Day 7” value is given as 0.
Regarding `O=C(O)c1cn(C2CC2)c2cc(N3CCNCC3)c(F)cc2c1=O` [Ciprofloxacin], the “Susceptibility of Burkholderia A396 (in words)” value (“Susceptibility” below) in the data set on Burkholderia A396 was “susceptible”. Besides, the “resistance of isolates (in words)” value in the data set on B. cepacia isolates is reported as “most of them are resistant”. The strains susceptible in the data set with B. cepacia complex is listed as 5%.
`C/C=C1\NC(=O)C2CSSCC/C=C/C(CC(=O)NC(C(C)C)C(=O)N2)OC(=O)C(C(C)C)NC1=O` (centres unmarked) [FR90128]: in the data set with Monilinia fructicola, the “effect on the growth of Monilinia (in words)” value is “no effect”. In addition, the “effect on hyphal growth of Botrytis (in words)” value in the data set on Botrytis cinerea (setting [5]) is “effective in controlling the hyphal growth”. Moreover, the “threshold concentration for inhibition, Botrytis” value in the data set with Botrytis cinerea (10 μL per filter paper disk) turned out to be 10 mg/mL. Further, the “effect on hyphal growth of Phytophtora (in words)” value in the data set with Phytophtora sp. (setting [5]) was “effective in controlling the hyphal growth”. In addition, the “threshold concentration for inhibition, Phytophtora” value in the data set on Phytophtora sp. (10 μL per filter paper disk) is 1.25 mg/mL. The same compound displayed a mortality at 10 µg/mL in data set [1] of 90%. Besides, in data set [3] (1 microliter of 10 mg/mL in ethanol added to 99 microliters water, all eight wells), the “state of grass seedlings (in words)” value is recorded as “dead with no green tissue left”.
Take `CCN1CCN(C(=O)N[C@@H](C(=O)N[C@@H]2C(=O)N3[C@@H]2SC(C)(C)[C@@H]3C(=O)O)c2ccccc2)C(=O)C1=O` [Piperacillin]: the “Susceptibility” value with Burkholderia A396 is listed as “susceptible”.
Consider `COC(=O)c1nc(CC(C)C)oc1-c1c[nH]c2ccccc12` [templazole A], for which the “herbicidal activity of pure compound (in words)” value in the data set on lettuce is “active”.
Consider `C[C@@H](O)[C@H]1C(=O)N2C(C(=O)O)=C(SCCN=CN)C[C@H]12` [Imipenem], for which, in the data set with Burkholderia A396, the “Susceptibility” value is reported as “susceptible”. Moreover, the “resistance of isolates (in words)” value with B. cepacia isolates is given as “most of them are resistant”. For the same compound, the strains susceptible in the data set with B. cepacia complex is listed as 7%.
Consider `CCC(=O)OC(C)/C=C\C(=O)NC1CC(C)C(C/C=C(C)/C=C/C2OC(C)(O)C(O)C3(CO3)C2O)OC1C` (centres unmarked) [FR901465], for which the “(% Mortality)” value in [1] worked out at 50%. Moreover, in data set [4], the “Lettuce seedlings (% Mortality)” value was determined as 100%. Also, in data set [3], the “Grass seedlings (% Mortality)” value worked out at 88%.
Take `NC[C@H]1O[C@H](O[C@H]2[C@H](O)[C@@H](O[C@H]3O[C@H](CO)[C@@H](O)[C@H](N)[C@H]3O)[C@H](N)C[C@@H]2N)[C@H](O)[C@@H](O)[C@@H]1O` [Kanamycin]: in the data set on Burkholderia A396, the “Susceptibility” value is “susceptible”.
Take `O=C(N[C@H](CO)[C@H](O)c1ccc([N+](=O)[O-])cc1)C(Cl)Cl` [Chloramphenicol]: the “Susceptibility” value in the data set with Burkholderia A396 is listed as “susceptible”. Also, in the data set with B. cepacia isolates, the “resistance of isolates (in words)” value is “most of them are resistant”. In the data set with B. cepacia complex, the strains resistant is on record as 85% and the strains susceptible is on record as 15%.
`CCC(=O)OC(C)/C=C\C(=O)NC1CC(C)C(C/C=C(C)/C=C/C2OC(C)(O)C(O)C3(CO3)C2O)OC1C` (centres unmarked) [Templamide B]: in data set [1], the “(% Mortality)” value is 80%. Also, the “Lettuce seedlings (% Mortality)” value in [4] was 75%; in data set [4] (listed as templamide B) it was 100%. Further, the “Grass seedlings (% Mortality)” value in data set [3] was 0%.
For `Cc1cc(NS(=O)(=O)c2ccc(N)cc2)no1` [sulphametoxacole], the “resistance of isolates (in words)” value in the data set with B. cepacia isolates is on record as “most of them are resistant”.
For `CN(C)[C@@H]1C(O)=C(C(N)=O)C(=O)[C@@]2(O)C(O)=C3C(=O)c4c(O)cccc4[C@@](C)(O)[C@H]3C[C@@H]12` [Tetracycline], the “resistance of isolates (in words)” value in the data set on B. cepacia isolates is recorded as “most of them are resistant”.
For the compound `CO/N=C(\C(=O)N[C@@H]1C(=O)N2C(C(=O)O)=C(COC(N)=O)CS[C@H]12)c1ccco1` [Cefuroxime], the “resistance of isolates (in words)” value with B. cepacia isolates is recorded as “most of them are resistant”.

The record behind these values is patent US20170290336A1, “Isolated Bacterial Strain of the Genus Burkholderia and Pesticidal Metabolites Therefrom” (Marrone Bio Innovations, Inc., priority 2010, published 2017).
